Results taken from PubChem BioAssay (NCI).
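All cell lines were grown in 96-well plates and treated with compound for 48 hours. At the TGI there is no net growth.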

Test system: HCT-116 colon
Test: NCI-60 cell line screen, 48 h

Row | SMILES | TGI
1 | Cc1nc2sc3ccccc3n2c(=O)c1N=Nc1ccc(Cl)cc1 | > 100 µM
2 | O=C1O[C@H](c2ccc3c(c2)OCO3)[C@H]2CO[C@@H](c3ccc4c(c3)OCO4)[C@@H]12 | > 100 µM
3 | Cc1ccc2c(c1)C(=O)C1(C2)Cc2cccc(C)c2C1=O (centres undefined) | > 100 µM
4 | O=C1NC(=O)C(CC2CCCCCCCCCCC2=O)C(=O)N1 (centres undefined) | > 100 µM
5 | Cc1cc(NCc2ccccc2)c2ccccc2[n+]1CCCCCCCCCC[n+]1c(C)cc(NCc2ccccc2)c2ccccc21 | 1.45 µM
6 | Nc1ccc(S(=O)(=O)Nc2nccs2)cc1 | > 100 µM
7 | CCOc1ccc(/C=C2/C(=O)N=C(NC(C)=O)N2C)cc1 | > 100 µM

Test system: KM12 colon
Test: NCI-60 cell line screen, 48 h

Row | SMILES | TGI
8 | Cc1nc2sc3ccccc3n2c(=O)c1N=Nc1ccc(Cl)cc1 | > 100 µM
9 | O=C1O[C@H](c2ccc3c(c2)OCO3)[C@H]2CO[C@@H](c3ccc4c(c3)OCO4)[C@@H]12 | > 100 µM
10 | Cc1ccc2c(c1)C(=O)C1(C2)Cc2cccc(C)c2C1=O (centres undefined) | > 100 µM
11 | O=C1NC(=O)C(CC2CCCCCCCCCCC2=O)C(=O)N1 (centres undefined) | > 100 µM
12 | Cc1cc(NCc2ccccc2)c2ccccc2[n+]1CCCCCCCCCC[n+]1c(C)cc(NCc2ccccc2)c2ccccc21 | 0.796 µM
13 | Nc1ccc(S(=O)(=O)Nc2nccs2)cc1 | > 100 µM
14 | CCOc1ccc(/C=C2/C(=O)N=C(NC(C)=O)N2C)cc1 | > 100 µM

Test system: HOP-62 NSCLC
Test: NCI-60 cell line screen, 48 h

Row | SMILES | TGI
15 | Cc1nc2sc3ccccc3n2c(=O)c1N=Nc1ccc(Cl)cc1 | > 100 µM
16 | O=C1O[C@H](c2ccc3c(c2)OCO3)[C@H]2CO[C@@H](c3ccc4c(c3)OCO4)[C@@H]12 | > 100 µM
17 | Cc1ccc2c(c1)C(=O)C1(C2)Cc2cccc(C)c2C1=O (centres undefined) | > 100 µM
18 | O=C1NC(=O)C(CC2CCCCCCCCCCC2=O)C(=O)N1 (centres undefined) | > 100 µM
19 | Nc1ccc(S(=O)(=O)Nc2nccs2)cc1 | > 100 µM
20 | CCOc1ccc(/C=C2/C(=O)N=C(NC(C)=O)N2C)cc1 | > 100 µM

Test system: NCI/ADR-RES ovarian
Test: NCI-60 cell line screen, 48 h

Row | SMILES | TGI
21 | Cc1nc2sc3ccccc3n2c(=O)c1N=Nc1ccc(Cl)cc1 | > 100 µM
22 | O=C1O[C@H](c2ccc3c(c2)OCO3)[C@H]2CO[C@@H](c3ccc4c(c3)OCO4)[C@@H]12 | > 100 µM
23 | Cc1ccc2c(c1)C(=O)C1(C2)Cc2cccc(C)c2C1=O (centres undefined) | > 100 µM
24 | O=C1NC(=O)C(CC2CCCCCCCCCCC2=O)C(=O)N1 (centres undefined) | > 100 µM
25 | Cc1cc(NCc2ccccc2)c2ccccc2[n+]1CCCCCCCCCC[n+]1c(C)cc(NCc2ccccc2)c2ccccc21 | 21.9 µM
26 | Nc1ccc(S(=O)(=O)Nc2nccs2)cc1 | > 100 µM
27 | CCOc1ccc(/C=C2/C(=O)N=C(NC(C)=O)N2C)cc1 | > 100 µM

Test system: A498 renal
Test: NCI-60 cell line screen, 48 h

Row | SMILES | TGI
28 | Cc1ccc2c(c1)C(=O)C1(C2)Cc2cccc(C)c2C1=O (centres undefined) | > 100 µM
29 | Cc1cc(NCc2ccccc2)c2ccccc2[n+]1CCCCCCCCCC[n+]1c(C)cc(NCc2ccccc2)c2ccccc21 | 14.5 µM
30 | Nc1ccc(S(=O)(=O)Nc2nccs2)cc1 | > 100 µM
31 | CCOc1ccc(/C=C2/C(=O)N=C(NC(C)=O)N2C)cc1 | > 100 µM

Test system: OVCAR-5 ovarian
Test: NCI-60 cell line screen, 48 h

Row | SMILES | TGI
32 | Cc1nc2sc3ccccc3n2c(=O)c1N=Nc1ccc(Cl)cc1 | > 100 µM
33 | O=C1O[C@H](c2ccc3c(c2)OCO3)[C@H]2CO[C@@H](c3ccc4c(c3)OCO4)[C@@H]12 | > 100 µM
34 | Cc1ccc2c(c1)C(=O)C1(C2)Cc2cccc(C)c2C1=O (centres undefined) | > 100 µM
35 | O=C1NC(=O)C(CC2CCCCCCCCCCC2=O)C(=O)N1 (centres undefined) | > 100 µM
36 | Cc1cc(NCc2ccccc2)c2ccccc2[n+]1CCCCCCCCCC[n+]1c(C)cc(NCc2ccccc2)c2ccccc21 | 12.7 µM
37 | Nc1ccc(S(=O)(=O)Nc2nccs2)cc1 | > 100 µM
38 | CCOc1ccc(/C=C2/C(=O)N=C(NC(C)=O)N2C)cc1 | > 100 µM

Test system: PC-3 prostate
Test: NCI-60 cell line screen, 48 h

Row | SMILES | TGI
39 | Cc1nc2sc3ccccc3n2c(=O)c1N=Nc1ccc(Cl)cc1 | > 100 µM
40 | O=C1O[C@H](c2ccc3c(c2)OCO3)[C@H]2CO[C@@H](c3ccc4c(c3)OCO4)[C@@H]12 | > 100 µM
41 | Cc1ccc2c(c1)C(=O)C1(C2)Cc2cccc(C)c2C1=O (centres undefined) | > 100 µM
42 | O=C1NC(=O)C(CC2CCCCCCCCCCC2=O)C(=O)N1 (centres undefined) | > 100 µM
43 | Cc1cc(NCc2ccccc2)c2ccccc2[n+]1CCCCCCCCCC[n+]1c(C)cc(NCc2ccccc2)c2ccccc21 | 5.16 µM
44 | Nc1ccc(S(=O)(=O)Nc2nccs2)cc1 | > 100 µM

Test system: SF-268 CNS
Test: NCI-60 cell line screen, 48 h

Row | SMILES | TGI
45 | Cc1nc2sc3ccccc3n2c(=O)c1N=Nc1ccc(Cl)cc1 | > 100 µM
46 | O=C1O[C@H](c2ccc3c(c2)OCO3)[C@H]2CO[C@@H](c3ccc4c(c3)OCO4)[C@@H]12 | > 100 µM
47 | Cc1ccc2c(c1)C(=O)C1(C2)Cc2cccc(C)c2C1=O (centres undefined) | > 100 µM
48 | O=C1NC(=O)C(CC2CCCCCCCCCCC2=O)C(=O)N1 (centres undefined) | > 100 µM
49 | Cc1cc(NCc2ccccc2)c2ccccc2[n+]1CCCCCCCCCC[n+]1c(C)cc(NCc2ccccc2)c2ccccc21 | 2.45 µM
50 | Nc1ccc(S(=O)(=O)Nc2nccs2)cc1 | > 100 µM
51 | CCOc1ccc(/C=C2/C(=O)N=C(NC(C)=O)N2C)cc1 | > 100 µM

Test system: COLO 205 colon
Test: NCI-60 cell line screen, 48 h

Row | SMILES | TGI
52 | Cc1nc2sc3ccccc3n2c(=O)c1N=Nc1ccc(Cl)cc1 | > 100 µM
53 | O=C1O[C@H](c2ccc3c(c2)OCO3)[C@H]2CO[C@@H](c3ccc4c(c3)OCO4)[C@@H]12 | > 100 µM
54 | Cc1ccc2c(c1)C(=O)C1(C2)Cc2cccc(C)c2C1=O (centres undefined) | > 100 µM
55 | O=C1NC(=O)C(CC2CCCCCCCCCCC2=O)C(=O)N1 (centres undefined) | > 100 µM
56 | Cc1cc(NCc2ccccc2)c2ccccc2[n+]1CCCCCCCCCC[n+]1c(C)cc(NCc2ccccc2)c2ccccc21 | 0.665 µM
57 | Nc1ccc(S(=O)(=O)Nc2nccs2)cc1 | > 100 µM
58 | CCOc1ccc(/C=C2/C(=O)N=C(NC(C)=O)N2C)cc1 | > 100 µM

Test system: OVCAR-8 ovarian
Test: NCI-60 cell line screen, 48 h

Row | SMILES | TGI
59 | Cc1nc2sc3ccccc3n2c(=O)c1N=Nc1ccc(Cl)cc1 | > 100 µM
60 | O=C1O[C@H](c2ccc3c(c2)OCO3)[C@H]2CO[C@@H](c3ccc4c(c3)OCO4)[C@@H]12 | > 100 µM
61 | Cc1ccc2c(c1)C(=O)C1(C2)Cc2cccc(C)c2C1=O (centres undefined) | > 100 µM
62 | O=C1NC(=O)C(CC2CCCCCCCCCCC2=O)C(=O)N1 (centres undefined) | > 100 µM
63 | Cc1cc(NCc2ccccc2)c2ccccc2[n+]1CCCCCCCCCC[n+]1c(C)cc(NCc2ccccc2)c2ccccc21 | 6.71 µM
64 | Nc1ccc(S(=O)(=O)Nc2nccs2)cc1 | > 100 µM
65 | CCOc1ccc(/C=C2/C(=O)N=C(NC(C)=O)N2C)cc1 | > 100 µM

Test system: HOP-92 NSCLC
Test: NCI-60 cell line screen, 48 h

Row | SMILES | TGI
66 | Cc1nc2sc3ccccc3n2c(=O)c1N=Nc1ccc(Cl)cc1 | > 100 µM
67 | O=C1O[C@H](c2ccc3c(c2)OCO3)[C@H]2CO[C@@H](c3ccc4c(c3)OCO4)[C@@H]12 | > 100 µM
68 | Cc1ccc2c(c1)C(=O)C1(C2)Cc2cccc(C)c2C1=O (centres undefined) | > 100 µM
69 | O=C1NC(=O)C(CC2CCCCCCCCCCC2=O)C(=O)N1 (centres undefined) | > 100 µM
70 | Cc1cc(NCc2ccccc2)c2ccccc2[n+]1CCCCCCCCCC[n+]1c(C)cc(NCc2ccccc2)c2ccccc21 | 2.25 µM
71 | CCOc1ccc(/C=C2/C(=O)N=C(NC(C)=O)N2C)cc1 | > 100 µM

Test system: DU-145 prostate
Test: NCI-60 cell line screen, 48 h

Row | SMILES | TGI
72 | Cc1nc2sc3ccccc3n2c(=O)c1N=Nc1ccc(Cl)cc1 | > 100 µM
73 | Cc1ccc2c(c1)C(=O)C1(C2)Cc2cccc(C)c2C1=O (centres undefined) | > 100 µM
74 | O=C1NC(=O)C(CC2CCCCCCCCCCC2=O)C(=O)N1 (centres undefined) | > 100 µM
75 | Cc1cc(NCc2ccccc2)c2ccccc2[n+]1CCCCCCCCCC[n+]1c(C)cc(NCc2ccccc2)c2ccccc21 | 10.9 µM
76 | Nc1ccc(S(=O)(=O)Nc2nccs2)cc1 | > 100 µM
77 | CCOc1ccc(/C=C2/C(=O)N=C(NC(C)=O)N2C)cc1 | > 100 µM

Test system: HCT-15 colon
Test: NCI-60 cell line screen, 48 h

Row | SMILES | TGI
78 | Cc1nc2sc3ccccc3n2c(=O)c1N=Nc1ccc(Cl)cc1 | > 100 µM
79 | O=C1O[C@H](c2ccc3c(c2)OCO3)[C@H]2CO[C@@H](c3ccc4c(c3)OCO4)[C@@H]12 | > 100 µM
80 | Cc1ccc2c(c1)C(=O)C1(C2)Cc2cccc(C)c2C1=O (centres undefined) | > 100 µM
81 | O=C1NC(=O)C(CC2CCCCCCCCCCC2=O)C(=O)N1 (centres undefined) | > 100 µM
82 | Cc1cc(NCc2ccccc2)c2ccccc2[n+]1CCCCCCCCCC[n+]1c(C)cc(NCc2ccccc2)c2ccccc21 | 5.88 µM
83 | Nc1ccc(S(=O)(=O)Nc2nccs2)cc1 | > 100 µM
84 | CCOc1ccc(/C=C2/C(=O)N=C(NC(C)=O)N2C)cc1 | > 100 µM

Test system: MDA-MB-435
Test: NCI-60 cell line screen, 48 h

Row | SMILES | TGI
85 | Cc1nc2sc3ccccc3n2c(=O)c1N=Nc1ccc(Cl)cc1 | > 100 µM
86 | O=C1O[C@H](c2ccc3c(c2)OCO3)[C@H]2CO[C@@H](c3ccc4c(c3)OCO4)[C@@H]12 | > 100 µM
87 | Cc1ccc2c(c1)C(=O)C1(C2)Cc2cccc(C)c2C1=O (centres undefined) | > 100 µM
88 | O=C1NC(=O)C(CC2CCCCCCCCCCC2=O)C(=O)N1 (centres undefined) | > 100 µM
89 | Cc1cc(NCc2ccccc2)c2ccccc2[n+]1CCCCCCCCCC[n+]1c(C)cc(NCc2ccccc2)c2ccccc21 | 1.65 µM
90 | Nc1ccc(S(=O)(=O)Nc2nccs2)cc1 | > 100 µM
91 | CCOc1ccc(/C=C2/C(=O)N=C(NC(C)=O)N2C)cc1 | > 100 µM

Test system: LOX IMVI melanoma
Test: NCI-60 cell line screen, 48 h

Row | SMILES | TGI
92 | Cc1nc2sc3ccccc3n2c(=O)c1N=Nc1ccc(Cl)cc1 | > 100 µM
93 | O=C1O[C@H](c2ccc3c(c2)OCO3)[C@H]2CO[C@@H](c3ccc4c(c3)OCO4)[C@@H]12 | > 100 µM
94 | Cc1ccc2c(c1)C(=O)C1(C2)Cc2cccc(C)c2C1=O (centres undefined) | > 100 µM
